Key:
[1] = test system: HCV replicon in Huh7 cells; experiment: HCV replicon cell-based assay; design: species or system HCV strain 1B; conditions: Hepatitis C virus, Huh-7; HCV replicon, Huh7 cells; read-out: EC50 range
[2] = target: HCV NS3/4A protease complex, BMS strain (UniProt P27958, C1454S/C1711G, species not given/STRAIN_BMS); experiment: Recombinant HCV NS3/4A protease complex FRET peptide assay (BMS strain); type: biochemical, HCV genotype 1a; conditions: NS3/4A BMS strain; read-out: IC50 range
Outline: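 Percent inhibition taken from the linear-range fluorescence slope relative to uninhibited control, read kinetically for about 15 min at 25° C. Enzyme (2-3 nM, BMS NS3/4A complex, lysine-tailed, Ni-NTA purified) met compound for 1 min before 2 μM FRET depsipeptide substrate started cleavage.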

**Q.** `C=C[C@@H]1C[C@]1(NC(=O)[C@@H]1C[C@@H](Oc2nccc3cc(OC)ccc23)CN1C(=O)[C@@H](NC(=O)N[C@@H](C(=O)OC)C(C)C)C(C)(C)C)C(=O)NS(=O)(=O)C1CC1` [Compound 142] was tested. Which EC50 [1] did it give?
**A.** < 100 nM

**Q.** And the IC50 [2]?
**A.** < 100 nM

**Q.** How did the EC50 [1] turn out when `C=C[C@@H]1C[C@]1(NC(=O)[C@@H]1C[C@@H](Oc2nccc3cc(OC)ccc23)CN1C(=O)[C@@H](NC(=O)OC(C)(C)C)C1CCCCC1)C(=O)NS(=O)(=O)C1CC1` [Compound 143] was run?
**A.** < 100 nM

**Q.** And the IC50 [2]?
**A.** < 100 nM

**Q.** Which results are given for `C=C[C@@H]1C[C@]1(NC(=O)[C@@H]1C[C@@H](Oc2nccc3cc(OC)ccc23)CN1C(=O)[C@@H](NC(=O)NCC(=O)OC)C(C)(C)C)C(=O)NS(=O)(=O)C1CC1` [Compound 144]?
**A.** EC50 [1]: 100 to 1000 nM; IC50 [2]: < 100 nM

**Q.** `C=C[C@@H]1C[C@]1(NC(=O)[C@@H]1C[C@@H](Oc2nccc3cc(OC)ccc23)CN1C(=O)[C@@H](NC(=O)N[C@@H](C)C(=O)OC)C(C)(C)C)C(=O)NS(=O)(=O)C1CC1` [Compound 145] was tested. Which EC50 [1] did it give?
**A.** 100 to 1000 nM

**Q.** What about the IC50 [2] of the same molecule?
**A.** < 100 nM

**Q.** For `C=C[C@@H]1C[C@]1(NC(=O)[C@@H]1C[C@@H](Oc2nccc3cc(OC)ccc23)CN1C(=O)[C@@H](NC(=O)N[C@@H](Cc1c[nH]cn1)C(=O)OC)C(C)(C)C)C(=O)NS(=O)(=O)C1CC1` [Compound 147], which EC50 [1] is on record?
**A.** 1000 to 10000 nM

**Q.** And the IC50 [2]?
**A.** < 100 nM

**Q.** Which EC50 [1] does the source give for `C=C[C@@H]1C[C@]1(NC(=O)[C@@H]1C[C@@H](Oc2nccc3cc(OC)ccc23)CN1C(=O)[C@@H](NC(=O)N[C@H](C(=O)OCC)C(C)C)C(C)(C)C)C(=O)NS(=O)(=O)C1CC1` [Compound 148] here?
**A.** < 100 nM

**Q.** What about the IC50 [2] of the same molecule?
**A.** < 100 nM

**Q.** With `C=C[C@@H]1C[C@]1(NC(=O)[C@@H]1C[C@@H](Oc2nccc3cc(OC)ccc23)CN1C(=O)[C@@H](NC(=O)OC(C)(C)C)C1CCCC1)C(=O)NS(=O)(=O)C1CC1` [Compound 149] as the molecule, how does the EC50 [1] read?
**A.** < 100 nM

**Q.** And the IC50 [2]?
**A.** < 100 nM

**Q.** How did the EC50 [1] turn out when `C=C[C@@H]1C[C@]1(NC(=O)[C@@H]1C[C@@H](Oc2nccc3cc(OC)ccc23)CN1C(=O)[C@@H](NC(=O)N[C@H](C(=O)OCc1ccccc1)C(C)C)C(C)(C)C)C(=O)NS(=O)(=O)C1CC1` [Compound 150] was run?
**A.** < 100 nM

**Q.** And the IC50 [2]?
**A.** < 100 nM

**Q.** Which results are given for `C=C[C@@H]1C[C@]1(NC(=O)[C@@H]1C[C@@H](Oc2nccc3cc(OC)ccc23)CN1C(=O)[C@@H](NC(=O)N[C@H](C(=O)OC)[C@@H](C)CC)C(C)(C)C)C(=O)NS(=O)(=O)C1CC1` [Compound 151]?
**A.** EC50 [1]: < 100 nM; IC50 [2]: < 100 nM

**Q.** Which results are given for `C=C[C@@H]1C[C@]1(NC(=O)[C@@H]1C[C@@H](Oc2nccc3cc(OC)ccc23)CN1C(=O)[C@@H](NC(=O)N[C@H](C(=O)OC(C)(C)C)C(C)C)C(C)(C)C)C(=O)NS(=O)(=O)C1CC1` [Compound 152]?
**A.** EC50 [1]: < 100 nM; IC50 [2]: < 100 nM

**Q.** Which results are given for `C=C[C@@H]1C[C@]1(NC(=O)[C@@H]1C[C@@H](Oc2nccc3cc(OC)ccc23)CN1C(=O)[C@@H](NC(=O)N(C)[C@H](C(=O)OC)C(C)C)C(C)(C)C)C(=O)NS(=O)(=O)C1CC1` [Compound 154]?
**A.** EC50 [1]: 100 to 1000 nM; IC50 [2]: < 100 nM

**Q.** For `C=C[C@@H]1C[C@]1(NC(=O)[C@@H]1C[C@@H](Oc2nccc3cc(OC)ccc23)CN1C(=O)[C@@H](NC(=O)OC(C)(C)C(F)(F)F)C(C)(C)C)C(=O)NS(=O)(=O)C1CC1` [Compound 155], which EC50 [1] is on record?
**A.** < 100 nM

**Q.** And the IC50 [2]?
**A.** < 100 nM

**Q.** `C=CC1C[C@]1(NC(=O)[C@@H]1C[C@@H](Oc2cc(C(F)(F)F)nc3ccccc23)CN1C(=O)[C@@H](NC(=O)OC(C)(C)C)C(C)(C)C)C(=O)NS(=O)(=O)C1CC1` (stereo partly drawn) [Compound 180, BOCNH-P3(L-tert-BuGly)-P2[(4R)-(2-trifluoromethyl quinolin-4-oxo)-S-proline]-P1(1R,2S Vinyl Acca)-CONHSO2-Cyclopropane] was tested. Which EC50 [1] did it give?
**A.** 100 to 1000 nM

**Q.** And the IC50 [2]?
**A.** < 100 nM

**Q.** `C=CC1C[C@]1(NC(=O)[C@@H]1C[C@@H](Oc2cc(C(F)(F)F)nc3c(C(F)(F)F)cccc23)CN1C(=O)[C@@H](NC(=O)OC(C)(C)C)C(C)(C)C)C(=O)NS(=O)(=O)C1CC1` (stereo partly drawn) [Compound 181, BOCNH-P3(L-tert-BuGly)-P2[(4R)-(2,8-bistrifluoromethyl quinolin-4-oxo)-S-proline]-P1(1R,2S Vinyl Acca)-CONHSO2-Cyclopropane] was tested. Which EC50 [1] did it give?
**A.** 100 to 1000 nM

**Q.** What about the IC50 [2] of the same molecule?
**A.** < 100 nM

**Q.** `C=CC1C[C@]1(NC(=O)[C@@H]1C[C@@H](Oc2cc(C(F)(F)F)nc3c(OC(F)(F)F)cccc23)CN1C(=O)[C@@H](NC(=O)OC(C)(C)C)C(C)(C)C)C(=O)NS(=O)(=O)C1CC1` (stereo partly drawn) [Compound 182, BOCNH-P3(L-tert-BuGly)-P2[(4R)-(2-trifluoromethyl, 8-trifluoromethoxy quinolin-4-oxo)-S-proline]-P1(1R,2S Vinyl Acca)-CONHSO2-Cyclopropane] was tested. Which EC50 [1] did it give?
**A.** 100 to 1000 nM

**Q.** What about the IC50 [2] of the same molecule?
**A.** < 100 nM

**Q.** What does the source list for `C=CC1C[C@]1(NC(=O)[C@@H]1C[C@@H](Oc2cc(C(F)(F)F)nc3c(Cl)cccc23)CN1C(=O)[C@@H](NC(=O)OC(C)(C)C)C(C)(C)C)C(=O)NS(=O)(=O)C1CC1` (stereo partly drawn) [Compound 183, BOCNH-P3(L-tert-BuGly)-P2[(4R)-(2-trifluoromethyl, 8-chloro quinolin-4-oxo)-S-proline]-P1(1R,2S Vinyl Acca)-CONHSO2-Cyclopropane]?
**A.** EC50 [1]: < 100 nM; IC50 [2]: < 100 nM

**Q.** `C=CC1C[C@]1(NC(=O)[C@@H]1C[C@@H](Oc2ccnc3cc(C(F)(F)F)ccc23)CN1C(=O)[C@@H](NC(=O)OC(C)(C)C)C(C)(C)C)C(=O)NS(=O)(=O)C1CC1` (stereo partly drawn) [Compound 185, BOCNH-P3(L-tert-BuGly)-P2[(4R)-(7-trifluoromethyl quinolin-4-oxo)-S-proline]-P1(1R,2S Vinyl Acca)-CONHSO2-Cyclopropane] was tested. Which EC50 [1] did it give?
**A.** < 100 nM

**Q.** And the IC50 [2]?
**A.** < 100 nM

**Q.** For `C=CC1C[C@]1(NC(=O)[C@@H]1C[C@@H](Oc2ccnc3c(C(F)(F)F)cccc23)CN1C(=O)[C@@H](NC(=O)OC(C)(C)C)C(C)(C)C)C(=O)NS(=O)(=O)C1CC1` (stereo partly drawn) [Compound 186, BOCNH-P3(L-tert-BuGly)-P2[(4R)-(8-trifluoromethyl quinolin-4-oxo)-S-proline]-P1(1R,2S Vinyl Acca)-CONHSO2-Cyclopropane], which EC50 [1] is on record?
**A.** < 100 nM

**Q.** What about the IC50 [2] of the same molecule?
**A.** < 100 nM

**Q.** What does the source list for `C=CC1C[C@]1(NC(=O)[C@@H]1C[C@@H](Oc2nccc3cc(F)ccc23)CN1C(=O)[C@@H](NC(=O)OC(C)(C)C)C(C)(C)C)C(=O)NS(=O)(=O)C1CC1` (stereo partly drawn) [Compound 187, BOCNH-P3(L-tert-BuGly)-P2[(4R)-(6-fluoro isoquinolin-1-oxo)-S -proline]-P1(1R,2S Vinyl Acca)-CONHSO2-Cyclopropane]?
**A.** EC50 [1]: 100 to 1000 nM; IC50 [2]: < 100 nM

**Q.** With `C=CC1C[C@]1(NC(=O)[C@@H]1C[C@@H](Oc2ccc3c(Cl)nccc3c2)CN1C(=O)[C@@H](NC(=O)OC(C)(C)C)C(C)(C)C)C(=O)NS(=O)(=O)C1CC1` (stereo partly drawn) [Compound 188, BOCNH-P3(L-tert-BuGly)-P2[(4R)-(1-chloro isoquinolin-6-oxo)-S -proline]-P1(1R,2S Vinyl Acca)-CONHSO2-Cyclopropane] as the molecule, how does the EC50 [1] read?
**A.** 100 to 1000 nM

**Q.** What about the IC50 [2] of the same molecule?
**A.** < 100 nM

**Q.** With `C=CC1C[C@]1(NC(=O)[C@@H]1C[C@@H](Oc2nccc3cc(CC)ccc23)CN1C(=O)[C@@H](NC(=O)OC(C)(C)C)C(C)(C)C)C(=O)NS(=O)(=O)C1CC1` (stereo partly drawn) [Compound 189, BOCNH-P3(L-tert-BuGly)-P2[(4R)-(6-ethyl isoquinolin-1-oxo)-S -proline]-P1(1R,2S Vinyl Acca)-CONHSO2-Cyclopropane] as the molecule, how does the EC50 [1] read?
**A.** 100 to 1000 nM

**Q.** What about the IC50 [2] of the same molecule?
**A.** < 100 nM

Source: US7915291B2, “Hepatitis C virus inhibitors” (Bristol-Myers Squibb Company, priority 2002, dated 2011)
